Source: article PMC6651038, “16-Hydroxy-Lycopersene, a Polyisoprenoid Alcohol Isolated from Tournefortia hirsutissima, Inhibits Nitric Oxide Production in RAW 264.7 Cells and Induces Apoptosis in Hep3B Cells” (Molecules, 2019)
Where two headings read alike, the source gives them in different places.

Experiments:
Bax = test: RT-PCR, Bax mRNA in Hep3B cells; format: cell-based, human; settings: 21.3 µM, 72 h, vs non-treated control
Experimental: (§1) RNA was quantified using NanoDrop ND-1000 (Thermo Scientific, Waltham, MA, USA) and the RNA content was normalized. The RT-PCR was performed using a One-Step RT-PCR Kit with Thermo-Start Taq (Thermo Scientific, Waltham, MA, USA) following the manufacturer's instructions. PCR was performed with the following primers sequences: Bcl-2 ([NT]), Bax ([NT] ([NT]). Sequencing was performed at the Instituto de Biotecnología of Universidad Nacional Autónoma de México.

HeLa = test: Antiproliferative MTS assay, HeLa; format: cell-based; settings: Homo sapiens, 72 h
Experimental: (§2) PC3 (prostate), HeLa (cervical) and Hep3B and HepG2 (hepatocellular) human cancer cell lines were purchased from ATCC (Manassas, VA, USA). We also included immortalized human hepatocyte cell line (IHH) as a control of non-cancerous cells. PC3 was grown in RPMI-1640 medium (Sigma Aldrich, St. Louis, MO, USA), while Hep3B, HepG2, HeLa and IHH in DMEM medium (Invitrogen, Thermo Fisher Scientific, Waltham, MA, USA) supplemented with 10% SFB and 2 mM glutamine, all cultures were incubated at 37 °C in 5% CO2.
(§3) Cells (4 × 10^3 cells/well) were seeding in 96-well plates. The cells were treated with the investigated samples (at 0.01, 0.1, 1, 10 and 100 µg/mL) and incubated at 37 °C in 5% CO2 for 72 h. PTX was used as positive control. The number of viable cells in proliferation was checked by MTS assay, following the manufacturer’s instructions. The absorbance was measured at 450 nm using an automated ELISA reader (Promega, Madison, WI, USA).

PC3 cells = test: Cell cycle analysis by flow cytometry, PC3; format: cell-based, human; settings: PC3, treatment at IC50, 72 h; control 0.9%
Experimental: (§4) PC3, Hep3B, HepG2 and HeLa cells (1.25 × 10^5 cells/well) were seed in 6-well plates and allowed to attach overnight at 37 °C in 5% CO2. Exponential growing cells were treated with Compound 1 to the IC50 values for 72 h. PTX (10 nM) was included as a positive control of the G2/M phase arrest. Cells from each treatment were trypsinized and collected into single cell suspensions, centrifuged, and fixed in cold ethanol (70%) overnight at −20 °C. The cells were then treated with 0.01 M RNase (Sigma Aldrich, St. Louis, MO, USA) and stained with 7.5 µg/mL PI (Invitrogen) for 30 min in the dark. The percentage of cells in sub-G1, G1, S, and G2/M phases was analyzed with a flow cytometer (Becton Dickinson, FACS Calibur; Beckman Coulter, Inc., Brea, CA, USA) using 10,000 cells for each sample. Data obtained from the flow cytometer were analyzed using the FlowJo Software (Tree Star, Inc., Ashland, OR, USA).

Bcl-2 = test: RT-PCR, Bcl-2 mRNA in Hep3B cells; format: cell-based, human; settings: 21.3 µM, 72 h, vs non-treated control
Experimental: as §1

[1] = tested on: immortalized human hepatocyte cell line (IHH); test: Antiproliferative MTS assay, IHH non-cancerous cells; format: cell-based; settings: 72 h
Experimental: as §2, §3

RAW 264.7 cells = test: Cell viability of RAW 264.7 cells (MTS); format: cell-based, murine; settings: at 30 and 60 µg/mL
Experimental: (§5) RAW 264.7 cells (murine macrophage cell line) were purchased from ATCC (Georgetown, Washington, DC, USA ) and cultured in Advanced DMEM/F12 medium (Gibco, Waltham, MA USA) supplemented with 1% GlutaMAX (Gibco) and 3.5% inactivated FBS (Gibco), without antibiotics at 37 °C in 5% CO2.
The cell viability was determined by using MTS from Promega. The cells (1 × 10^4 cells per well) were seeding in 96-well plates in 100 µL of medium and were incubated for 24 h. Then, the cells were treated with various concentrations of the investigated samples, positive control (etoposide, 30 µg/mL) or vehicle (0.4% DMSO in culture medium) and incubated for 24 h. Subsequently, 20 µL of MTS was added at 20 h of treatment for 4 h, after that, the absorbance at 490 nm was measured using a microplate reader (Biotek, Winooski, VT, USA). The absorbance of control cells (untreated) was taken as 100% viability. The concentration of DMSO together with the treatments, in the culture medium was ≤ 0.4%, v/v.

HepG2 = test: Antiproliferative MTS assay, HepG2; format: cell-based; settings: Homo sapiens, 72 h
Experimental: as §2, §3

Hep3B cells [2] = test: Cell morphology, acridine orange/ethidium bromide staining; format: cell-based, human; settings: 21.3 µM (12 µg/mL), 72 h
Experimental: The morphological changes of Hep3B cells exposed to Compound 1 were evaluated using acridine orange (AO) and ethidium bromide (EB) staining. In brief, Hep3B cells (2 × 10^4 cells per well) were seeding in 24-well plates and exposed with Compound 1 at 21.31 µM for 72 h. After 72 h of treatment cells were exposed to a solution of 100 µg/mL AO and 100 µg/mL EB, according to reported procedures. For controls, the cells were grown 71 h before being treated 30 min with H2O2 (positive control of apoptosis) or being boiling in water at 95 °C for 10 s (positive control of necrosis). Then, the cells were observed using a fluorescence microscope.

PC3 = test: Antiproliferative MTS assay, PC3; format: cell-based; settings: Homo sapiens, PC-3, 72 h
Experimental: as §2, §3

Hep3B = test: Antiproliferative MTS assay, Hep3B; format: cell-based; settings: Homo sapiens, 72 h
Experimental: as §2, §3

HepG2 cells = test: Cell cycle analysis by flow cytometry, HepG2; format: cell-based, human; settings: HepG2, treatment at IC50, 72 h; control 1.5%
Experimental: as §4

caspase 3/7 = test: Caspase-Glo 3/7 assay in Hep3B cells; format: cell-based, human; settings: 21.3 µM (12 µg/mL), 72 h
Experimental: Hep3B cells (8 × 10^3 cells per well) were plated on 96-well plates and treated with 1 at 21.31 µM for 72 h. After treatment, the caspase 3/7 activity was determined using the luminescent Caspase-Glo® 3/7 Assay (Promega, Madison, WI, USA) following the manufacturer’s instructions. The results were represented as relative units of luminescence.

[3] = tested on: nitric oxide (NO) production in LPS-stimulated RAW 264.7 cells; test: NO (nitrite, Griess) production in LPS-stimulated RAW 264.7 cells; format: cell-based, murine; settings: for inhibitory activity on NO production: highest evaluated concentration (60 µg/mL)
Experimental: as §5
RAW 264.7 cells were seeding (2 × 10^4 cells in 200 µL) and incubated for 24 h, then, were treated with various concentrations of the investigated samples, indomethacin (30 µg/mL) or DMSO (0.4%, v/v) for 2 h followed by stimulation with 1 µg/mL of LPS (from E. coli purchased from Sigma Aldrich, St. Louis, MO, USA) for 21 h. The nitrite is a stable metabolite of the NO and its concentration was calculated with Griess reagent and the aid of a standard curve of NaNO2. Cell-free supernatants (50 µL) were collected and incubated for 10 min with the Griess reagent (50 µL of 0.1% N-(1-napthyl)-ethylenediamine dihydrochloride and 50 µL of 1% sulphanilamide both in 2.5% phosphoric acid) at room temperature and absorbance at 540 nm was measured using a microplate reader.

Hep3B cells [4] = test: Cell cycle analysis by flow cytometry, Hep3B; format: cell-based, human; settings: treatment at IC50, 72 h, control 0.0%
Experimental: as §4

Hep3B cells [5] = test: Annexin V-FITC/PI staining, flow cytometry; format: cell-based, human; settings: Compound 1 21.3 µM, PTX 20 nM, 72 h
Experimental: Apoptosis was evaluated using Annexin V Apoptosis Detection Kit FITC (Thermo Fisher Scientific, CA, USA). Hep3B cells (2.5 × 10^5 cells) were treated with 1 (21.31 µM). PTX (20 nM) was used as positive control of apoptosis. After 72 h, the cells were harvested and washed twice with ice-cold PBS (0.01 M, pH 7.2). After 5 min of centrifuging at 200 g. Annexin V-FITC/PI staining were performed according to manufacturer’s instruction. Cell apoptosis was analyzed on flow cytometer (10,000 cells for each sample). Data obtained from the flow cytometer were analyzed using the FlowJo Software.

U937 cells = settings: cited from earlier work
[6] = tested on: TPA-induced acute edema in mice ear; test: TPA-induced ear edema in mice; format: in vivo; settings: 1 mg/ear topical, male ICR mice, 6 h after TPA
Experimental: Edema in mice ear was induced with TPA purchased from Sigma Aldrich (St. Louis, MO, USA), following the method previously described. All animals were treated in accordance with Official Mexican Rule of Technical Specifications for the Production, Care and Use of Laboratory Animals (NOM-062-ZOO-1999 Guidelines) and international ethical guidelines for the care and use of experimental animals. The experimental protocol was authorized by the local Health Research Committee (Instituto Mexicano del Seguro Social (IMSS)). The experiments were carried out with male ICR mice weighing between 25–30 g (five animals per treatment). […] The treatments were applied topically on right ear and vehicle on left ear, thereafter, the edema was induced by administration topically of TPA (2.5 µg) over both ears. Six hours after administration of TPA, the animals were sacrificed by cervical dislocation. Circular sections 6 mm in diameter were taken from both the treated and non-treated ears and weighed to determine the inflammation.

[7] = tested on: pro-inflammatory cytokines; design: method as in PMID 27921103; settings: 40 µM; via heme oxygenase-1 induction; cited from earlier work
[8] = 6 µM, mediated by caspase-3-like (CPP32-like) activation

IC50 (HeLa) [µM] | IC50 (HepG2) [µM] | IC50 (PC3) [µM] | IC50 (Hep3B) [µM] | Compound | IC50 [1] [µM] | further results
37.3 ± 3.5 | 26.6 ± 3.5 | 32 ± 4.4 | 21.3 ± 3.5 | CC(C)=CCC/C(C)=C/CC/C(C)=C/CC/C(C)=C/C[C@@H](O)/C=C(\C)CC/C=C(\C)CC/C=C(\C)CCC=C(C)C [Compound 1, (6E,10E,14E,18E,22E,26E)-2,6,10,14,19,23,27,31-octamethyldotriaconta-2,6,10,14,18,22,26,30-octaen-16R-ol] | 88.8 ± 8.9 | Bax transcripts (Bax): increased Bax transcripts; Bax/Bcl-2 ratio (Bax): increasing the Bax/Bcl-2 ratio; population in sub-G1 phase (PC3 cells): 19.0%; Bcl-2 transcripts (Bcl-2): inhibition of Bcl-2; effect on cell viability of RAW 264.7 cells (RAW 264.7 cells): decreased the cell viability; morphological changes (AO/EB fluorescence microscopy) (Hep3B cells [2]): apoptotic bodies formation and clear condensation of chromatin; population in sub-G1 phase (HepG2 cells): 14.8%; caspase 3/7 activation (caspase 3/7): statistically significant increase in caspase 3/7 activation; inhibition at 25.6 µM ([3]; Mus musculus, RAW264.7, 14.4 µg/mL (25.6 µM)): 28.6 ± 1.81%; population in sub-G1 phase (Hep3B cells [4]): 18.5%; percentage of early phase apoptosis cells (Hep3B cells [5]): 22.6%
95.7 ± 12 | 76.6 ± 6 | 74.2 ± 5 | 50.3 ± 5.9 | CC(C)=CCC/C(C)=C/CC/C(C)=C/CC/C(C)=C/CC/C(C)=C\CC/C(C)=C\CC/C(C)=C\CC/C(C)=C\CC/C(C)=C\CC/C(C)=C\CC/C(C)=C\CC/C(C)=C\CO [Compound 2, (Z8,E3,ω)-dodecaprenol] | 76.6 ± 6 | inhibitory activity on NO production [3]: negligible inhibitory activity
84.1 ± 8.9 | 74.2 ± 5.5 | 76.4 ± 6.6 | 69.7 ± 5.5 | CC(C)=CCC/C(C)=C/CC/C(C)=C/CC/C(C)=C/CC/C(C)=C\CC/C(C)=C\CC/C(C)=C\CC/C(C)=C\CC/C(C)=C\CC/C(C)=C\CC/C(C)=C\CC/C(C)=C\CC/C(C)=C\CO [Compound 3, (Z9,E3,ω)-tridecaprenol] | 74.1 ± 5.5 | inhibitory activity on NO production [3]: negligible inhibitory activity
0.01 ± 0.002 | 0.0065 ± 0.0007 | 0.0154 ± 0.0035 | 0.008 ± 0.001 | CC(=O)O[C@H]1C(=O)[C@@]2(C)[C@H]([C@H](OC(=O)c3ccccc3)[C@]3(O)C[C@H](OC(=O)[C@H](O)[C@@H](NC(=O)c4ccccc4)c4ccccc4)C(C)=C1C3(C)C)[C@]1(OC(C)=O)CO[C@@H]1C[C@@H]2O [Paclitaxel, reference compound] | 0.08 ± 0.005 | 
 |  |  |  | CC(C)=CCC/C(C)=C/CC/C(C)=C/CC/C(C)=C/CC/C(C)=C/CC/C(C)=C/CC/C(C)=C/CC/C(C)=C\CC/C(C)=C/CCC(C)CCOP(=O)(O)O (stereo not drawn) [dihydrodecaprenyl phosphates, dihydrodecaprenyl phosphate] |  | apoptosis in U937 cells (U937 cells; [8]): induced apoptosis
 |  |  |  | COc1ccc2c(c1)c(CC(=O)O)c(C)n2C(=O)c1ccc(Cl)cc1 [indomethacin, reference compound] |  | inhibition at 30 µg/mL ([3]; Mus musculus, RAW264.7, 30 µg/mL): 54.6 ± 8.9%; edema inhibition [6]: 87.6 ± 0.4%
 |  |  |  | CC(C)=CCC/C(C)=C/CC/C(C)=C/CC/C(C)=C/CC/C(C)=C/CC/C(C)=C/CC/C(C)=C/CC/C(C)=C/CC/C(C)=C/CO [solanesol] |  | production of pro-inflammatory cytokines [7]: suppresses the production of pro-inflammatory cytokines
 |  |  |  | Dihydroheptaprenyl phosphate |  | apoptosis in U937 cells (U937 cells; [8]): induced apoptosis
 |  |  |  | Dolichyl phosphate |  | apoptosis in U937 cells (U937 cells; 8 µg/mL, by the MAP kinase cascade): induced apoptosis
